The source of these data is patent US8183380B2, “2-aminoquinolines” (Hoffmann-La Roche Inc., priority 2008, dated 2012).

For orientation: Ki means the dissociation constant of the complex between target and ligand, obtained from inhibition or displacement.

Counter-ions that a name gives are not always drawn.

T1 sequence (P47898 whole entry): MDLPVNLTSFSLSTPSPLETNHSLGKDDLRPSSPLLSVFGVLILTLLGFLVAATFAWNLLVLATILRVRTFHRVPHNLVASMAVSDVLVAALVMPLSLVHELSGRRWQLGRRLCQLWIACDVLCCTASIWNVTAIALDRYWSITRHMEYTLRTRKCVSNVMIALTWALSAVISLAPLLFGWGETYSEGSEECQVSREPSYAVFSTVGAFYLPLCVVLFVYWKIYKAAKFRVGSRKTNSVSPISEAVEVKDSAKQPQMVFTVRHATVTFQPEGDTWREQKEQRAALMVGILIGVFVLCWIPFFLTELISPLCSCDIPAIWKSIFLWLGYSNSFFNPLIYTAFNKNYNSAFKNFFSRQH

This experiment concerns the target T1, recombinant human 5-HT5A receptor (Homo sapiens, UniProt P47898).
T1 construct: expressed in transfected cells; host or cells: HEK-EBNA (Human Embryonic Kidney-EBNA) cells, transient cDNA expression; membranes
Description: [3H]LSD radioligand binding assay. The following applies: [3H]LSD (approximately 1 nM); membranes from transiently expressed 5-HT5A receptors in HEK-EBNA cells; Ki from IC50 by Cheng-Prussoff equation. On the procedure: A [^3H]LSD radioligand binding assay was used to determine the affinity of the compounds for the recombinant human 5-HT5A receptor, in membranes from transiently (cDNA) expressed 5-HT5A receptors in Human Embryonic Kidney-EBNA (HEK-EBNA) cells. Assay buffer consisted of Tris (50 mM) buffer containing 1 mM EGTA, 10 mM MgCl2 (pH 7.4) and 10 μM pargyline. The binding assay was carried out in 96-well-plates in the presence of [^3H]LSD (approximately 1 nM), approximately 2 μg/well of membrane protein, and 0.5 mg of Ysi-poly-1-lysine SPA beads in a final volume of 200 μl of buffer. Non-specific binding was defined using methiothepin 2 μM. Compounds were tested at 10 concentrations. All assays were conducted in duplicate and repeated at least two times. Assay plates were incubated for 120 min at room temperature before centrifugation. Bound ligand was determined using a Packard Topcount scintillation counter. IC50 values were calculated using a non-linear curve fitting program and Ki values calculated using the Cheng-Prussoff equation.
Take `CCOc1cccc2c1C(Nc1ccc3cc(NC(=O)NC4CCN(C(C)C)CC4)ccc3n1)CO2` (racemic) [Example 181, rac-1-[2-(4-Ethoxy-2,3-dihydro-benzofuran-3-ylamino)-quinolin-6-yl]-3-(1-isopropyl-piperidin-4-yl)-urea]: the Ki is 4.1 nM.
Under `COc1cccc2c1C(Nc1ccc3cc(NC(=O)N[C@@H]4C[C@H]5CC[C@@H](C4)N5C(C)C)ccc3n1)CC2` (mixture of isomers) [Example 186, rac-1-((3-exo)-8-Isopropyl-8-aza-bicyclo[3.2.1]oct-3-yl)-3-[2-(7-methoxy-indan-1-ylamino)-quinolin-6-yl]-urea] stands 5.7 nM.
Then `COc1cccc2c1C(Nc1ccc3cc(NC(=O)N(C)[C@@H]4C[C@H]5CC[C@@H](C4)N5C(C)C)ccc3n1)CC2` (mixture of isomers) [Example 188, rac-1-((3-exo)-8-Isopropyl-8-aza-bicyclo[3.2.1]oct-3-yl)-3-[2-(7-methoxy-indan-1-ylamino)-quinolin-6-yl]-1-methyl-urea], with 8.5 nM; and `COc1cccc2c1C(Nc1ccc3cc(NC(=O)NC4CCN(CCO)CC4)ccc3n1)CC2` (racemic) [Example 189, rac-1-[1-(2-Hydroxy-ethyl)-piperidin-4-yl]-3-[2-(7-methoxy-indan-1-ylamino)-quinolin-6-yl]-urea], with 1.8 nM.
Under `COc1cccc2c1C(Nc1ccc3cc(NC(=O)N(C)C4CCN(CC(C)(C)O)CC4)ccc3n1)CC2` (racemic) [Example 191, rac-1-[1-(2-Hydroxy-2-methyl-propyl)-piperidin-4-yl]-3-[2-(7-methoxy-indan-1-ylamino)-quinolin-6-yl]-1-methyl-urea] stands 6.9 nM.
Consider `COc1cccc2c1C(Nc1ccc3cc(NC(=O)C4CC4)ccc3n1)CO2` (racemic) [Example 195, rac-Cyclopropanecarboxylic acid [2-(4-methoxy-2,3-dihydro-benzofuran-3-ylamino)-quinolin-6-yl]-amide], for which the Ki came to 7.3 nM.
Under `O=C(Nc1ccc2nc(NC3CCc4cc(F)ccc43)ccc2c1)NC1CCN(CCO)CC1` (racemic) [Example 197, rac-1-[2-(5-Fluoro-indan-1-ylamino)-quinolin-6-yl]-3-[1-(2-hydroxy-ethyl)-piperidin-4-yl]-urea] stands 3.5 nM.
Then `COc1cccc2c1C(Nc1ccc3cc(NC(=O)N(C)C4CCN(CCO)CC4)ccc3n1)CC2` (racemic) [Example 206, rac-1-[1-(2-Hydroxy-ethyl)-piperidin-4-yl]-3-[2-(7-methoxy-indan-1-ylamino)-quinolin-6-yl]-1-methyl-urea], with 6.7 nM; and `COc1cccc2c1C(Nc1ccc3cc(NC(=O)NC(C)C)ccc3n1)CC2` (single isomer, unassigned; (-)) [Example 13, (−)-1-Isopropyl-3-[2-(7-methoxy-indan-1-ylamino)-quinolin-6-yl]-urea], with 0.9 nM; and `CC(C)NC(=O)Nc1ccc2nc(N[C@@H]3CCc4ccccc43)ccc2c1` [Example 3, 1-[2-((R)-Indan-1-ylamino)-quinolin-6-yl]-3-isopropyl-urea], with 2.5 nM.
Under `O=C(Nc1ccc2nc(N[C@@H]3CCc4ccccc43)ccc2c1)NC1CCCCC1` [Example 5, 1-Cyclohexyl-3-[2-((R)-indan-1-ylamino)-quinolin-6-yl]-urea] stands 2.9 nM; under `CNC(=O)Nc1ccc2nc(N[C@@H]3CCc4ccccc43)ccc2c1` [Example 7, 1-[2-((R)-Indan-1-ylamino)-quinolin-6-yl]-3-methyl-urea], 3.4 nM; under `CC(C)(C)NC(=O)Nc1ccc2nc(N[C@@H]3CCc4ccccc43)ccc2c1` [Example 8, 1-tert-Butyl-3-[2-((R)-indan-1-ylamino)-quinolin-6-yl]-urea], 10.9 nM.
Consider `NC(=O)Nc1ccc2nc(N[C@@H]3CCc4ccccc43)ccc2c1` [Example 9, [2-((R)-Indan-1-ylamino)-quinolin-6-yl]-urea], for which the Ki was 2.9 nM.
As for `COCCNC(=O)Nc1ccc2nc(N[C@@H]3CCc4ccccc43)ccc2c1` [Example 17, 1-[2-((R)-Indan-1-ylamino)-quinolin-6-yl]-3-(2-methoxy-ethyl)-urea], the Ki turned out to be 7 nM.
Then `CN(C)CCNC(=O)Nc1ccc2nc(N[C@@H]3CCc4ccccc43)ccc2c1` [Example 18, 1-(2-Dimethylamino-ethyl)-3-[2-((R)-indan-1-ylamino)-quinolin-6-yl]-urea], with 7.3 nM; and `O=C(Nc1ccc2nc(N[C@@H]3CCc4ccccc43)ccc2c1)NC1CCOCC1` [Example 19, 1-[2-((R)-Indan-1-ylamino)-quinolin-6-yl]-3-(tetrahydro-pyran-4-yl)-urea], with 4 nM; and `CN1CCC(NC(=O)Nc2ccc3nc(N[C@@H]4CCc5ccccc54)ccc3c2)CC1` [Example 20, 1-[2-((R)-Indan-1-ylamino)-quinolin-6-yl]-3-(1-methyl-piperidin-4-yl)-urea], with 1.8 nM.
Under `O=C(Nc1ccc2nc(N[C@@H]3CCc4ccccc43)ccc2c1)NC1CC1` [Example 21, 1-Cyclopropyl-3-[2-((R)-indan-1-ylamino)-quinolin-6-yl]-urea] stands 3.9 nM.
Then `O=C(NCC1CC1)Nc1ccc2nc(N[C@@H]3CCc4ccccc43)ccc2c1` [Example 23, 1-Cyclopropylmethyl-3-[2-((R)-indan-1-ylamino)-quinolin-6-yl]-urea], with 4.7 nM.
In the case of `O=C(Nc1ccc2nc(N[C@@H]3CCc4ccccc43)ccc2c1)NC1CC2CCC1C2` (stereo partly drawn) [Example 26, 1-Bicyclo[2.2.1]hept-2-yl-3-[2-((R)-indan-1-ylamino)-quinolin-6-yl]-urea], the Ki amounted to 4.8 nM.
As to `CN(CCNC(=O)Nc1ccc2nc(N[C@@H]3CCc4ccccc43)ccc2c1)C1CC1` [Example 32, 1-[2-(Cyclopropyl-methyl-amino)-ethyl]-3-[2-((R)-indan-1-ylamino)-quinolin-6-yl]-urea], the Ki was 8.2 nM.
Under `O=C(Nc1ccc2nc(N[C@@H]3CCc4ccccc43)ccc2c1)NC1CCNCC1` [Example 39, 1-[2-((R)-Indan-1-ylamino)-quinolin-6-yl]-3-piperidin-4-yl-urea] stands 3.9 nM.
Under `O=C(Nc1ccc2nc(N[C@@H]3CCc4ccccc43)ccc2c1)NC1CCN(C2CC2)CC1` [Example 41, 1-(1-Cyclopropyl-piperidin-4-yl)-3-[2-((R)-indan-1-ylamino)-quinolin-6-yl]-urea] stands 4.1 nM.
Regarding `CC(C)N1CCC(NC(=O)Nc2ccc3nc(N[C@@H]4CCc5ccccc54)ccc3c2)CC1` [Example 42, 1-[2-((R)-Indan-1-ylamino)-quinolin-6-yl]-3-(1-isopropyl-piperidin-4-yl)-urea], the Ki amounted to 2.4 nM.
Under `COCCN1CCC(NC(=O)Nc2ccc3nc(N[C@@H]4CCc5ccccc54)ccc3c2)CC1` [Example 43, 1-[2-((R)-Indan-1-ylamino)-quinolin-6-yl]-3-[1-(2-methoxy-ethyl)-piperidin-4-yl]-urea] stands 2.5 nM; under `CSCCN1CCC(NC(=O)Nc2ccc3nc(N[C@@H]4CCc5ccccc54)ccc3c2)CC1` [Example 48, 1-[2-((R)-Indan-1-ylamino)-quinolin-6-yl]-3-[1-(2-methylsulfanyl-ethyl)-piperidin-4-yl]-urea], 7.7 nM.
Under `O=C(Nc1ccc2nc(N[C@@H]3CCc4ccccc43)ccc2c1)NC1CCN(CCC(F)(F)F)CC1` [Example 63, 1-[2-((R)-Indan-1-ylamino)-quinolin-6-yl]-3-[1-(3,3,3-trifluoro-propyl)-piperidin-4-yl]-urea] stands 10.4 nM; under `CN(C)S(=O)(=O)Nc1ccc2nc(N[C@@H]3CCc4ccccc43)ccc2c1` [Example 66, N′-{2-[(1R)-2,3-dihydro-1H-inden-1-ylamino]quinolin-6-yl}-N,N-dimethylsulfamide], 5.6 nM; under `NS(=O)(=O)Nc1ccc2nc(N[C@@H]3CCc4ccccc43)ccc2c1` [Example 72, N-{2-[(1R)-2,3-dihydro-1H-inden-1-ylamino]quinolin-6-yl}sulfamide hydrochloride], 8.4 nM.
On to `O=S(=O)(Nc1ccc2nc(N[C@@H]3CCc4ccccc43)ccc2c1)N1CCCC1` [Example 73, Pyrrolidine-1-sulfonic acid [2-((R)-indan-1-ylamino)-quinolin-6-yl]-amide], for which the Ki was found to be 3.2 nM.
Then `O=S(=O)(Nc1ccc2nc(N[C@@H]3CCc4ccccc43)ccc2c1)N1CCC(F)(F)C1` [Example 74, 3,3-Difluoro-pyrrolidine-1-sulfonic acid [2-((R)-indan-1-ylamino)-quinolin-6-yl]-amide], with 8.9 nM.
Then `O=S(=O)(Nc1ccc2nc(N[C@@H]3CCc4ccccc43)ccc2c1)N1CCOCC1` [Example 76, Morpholine-4-sulfonic acid [2-((R)-indan-1-ylamino)-quinolin-6-yl]-amide], with 9.9 nM; and `O=S(=O)(Nc1ccc2nc(N[C@@H]3CCc4ccccc43)ccc2c1)N1CCSCC1` [Example 78, Thiomorpholine-4-sulfonic acid [2-((R)-indan-1-ylamino)-quinolin-6-yl]-amide], with 7 nM.
Under `O=S(=O)(Nc1ccc2nc(N[C@@H]3CCc4ccccc43)ccc2c1)N1CCC2(CC1)OCCO2` [Example 82, 1,4-Dioxa-8-aza-spiro[4.5]decane-8-sulfonic acid [2-((R)-indan-1-ylamino)-quinolin-6-yl]-amide] stands 22.2 nM.
